What was measured:
[1] = biological target: T1, ΔF508 CFTR (Homo sapiens, UniProt P13569, DEL508-508); assay: Corrector activity, YFP halide (iodide) quenching assay in FRT cells expressing ΔF508 CFTR; type: cell-based; design: expressed in transfected cells; host or cells: Fischer rat thyroid (FRT) cells; conditions: FRT cells ΔF508 CFTR/YFP, 24 hours with compound at 37° C., forskolin and genistein; read-out: Corrector EC50
Procedure: Fisher rat thyroid (FRT) cells stably expressing ΔF508 CFTR and a halide-sensitive variant of yellow fluorescent protein (YFP) were seeded into microtiter plates and allowed to grow for 24 hours at 37° C. and 5% CO2. See Pedemonte et al., J. Clin. Invest. […] Compounds in dimethylsulfoxide (DMSO) solution were pre-diluted into cell culture medium, the medium was removed from cells, and then fresh medium containing the compounds was applied. The cells were incubated for a further 24 hours at 37° C. and 5% CO2.
Activity of CFTR was assayed by removing the medium, washing the cell monolayer with phosphate-buffered saline solution (PBS), and then applying PBS containing forskolin and genistein. After 30 min incubation at 37° C., the plates were placed in a fluorescence plate reader equipped with a reagent injector.
Corrector activity was calculated as follows. Normalized endpoint fluorescence was calculated by dividing the endpoint fluorescence after iodide injection by the initial fluorescence reading and multiplication by 100. Corrector EC50 values were calculated from the activity vs. concentration data using a 4-parameter log fit. The bottom of the curve was constrained to zero activity (DMSO control) while the slope, EC50, and top of the curve were fitted to the data. The EC50 was determined as the concentration that corresponds to the inflection point of the fitted curve.

[2] = biological target: T1, ΔF508 CFTR; assay: Potentiator activity, YFP halide (iodide) quenching assay in FRT cells expressing ΔF508 CFTR, 27° C. pre-incubation; type: cell-based; design: expressed in transfected cells; host or cells: Fischer rat thyroid (FRT) cells; conditions: FRT cells ΔF508 CFTR/YFP, 24 hours at 27° C., compound with forskolin 30 min
Procedure: Fisher rat thyroid (FRT) cells stably expressing ΔF508 CFTR and a halide-sensitive variant of yellow fluorescent protein (YFP) were seeded into microtiter plates and allowed to grow for 24 hours at 37° C. and 5% CO2, as described above. The medium was replaced with fresh medium and the cells were incubated for a further 24 hours at 27° C. and 5% CO2 to increase the level of mutant CFTR at the cell surface.
Compounds in DMSO solution were pre-diluted into phosphate-buffered saline solution (PBS) containing forskolin. Activity of CFTR was assayed by removing the medium, washing the cell monolayer with PBS, and then applying the compounds diluted in PBS containing forskolin. After 30 min of incubation at 37° C., the plates were placed in a fluorescence plate reader equipped with a reagent injector. After measuring an initial fluorescence value, iodide-containing buffer was injected and the decrease in fluorescence was followed at excitation and emission wavelengths of 485 and 530 nm, respectively.
Potentiator activity was calculated as follows. Normalized endpoint fluorescence was calculated by dividing the endpoint fluorescence after iodide injection by the initial fluorescence reading and multiplication by 100. Potentiator EC50 values were calculated by the same method as corrector EC50 values.

T1 sequence (P13569 with tags, fused parts or gaps DEL508-508): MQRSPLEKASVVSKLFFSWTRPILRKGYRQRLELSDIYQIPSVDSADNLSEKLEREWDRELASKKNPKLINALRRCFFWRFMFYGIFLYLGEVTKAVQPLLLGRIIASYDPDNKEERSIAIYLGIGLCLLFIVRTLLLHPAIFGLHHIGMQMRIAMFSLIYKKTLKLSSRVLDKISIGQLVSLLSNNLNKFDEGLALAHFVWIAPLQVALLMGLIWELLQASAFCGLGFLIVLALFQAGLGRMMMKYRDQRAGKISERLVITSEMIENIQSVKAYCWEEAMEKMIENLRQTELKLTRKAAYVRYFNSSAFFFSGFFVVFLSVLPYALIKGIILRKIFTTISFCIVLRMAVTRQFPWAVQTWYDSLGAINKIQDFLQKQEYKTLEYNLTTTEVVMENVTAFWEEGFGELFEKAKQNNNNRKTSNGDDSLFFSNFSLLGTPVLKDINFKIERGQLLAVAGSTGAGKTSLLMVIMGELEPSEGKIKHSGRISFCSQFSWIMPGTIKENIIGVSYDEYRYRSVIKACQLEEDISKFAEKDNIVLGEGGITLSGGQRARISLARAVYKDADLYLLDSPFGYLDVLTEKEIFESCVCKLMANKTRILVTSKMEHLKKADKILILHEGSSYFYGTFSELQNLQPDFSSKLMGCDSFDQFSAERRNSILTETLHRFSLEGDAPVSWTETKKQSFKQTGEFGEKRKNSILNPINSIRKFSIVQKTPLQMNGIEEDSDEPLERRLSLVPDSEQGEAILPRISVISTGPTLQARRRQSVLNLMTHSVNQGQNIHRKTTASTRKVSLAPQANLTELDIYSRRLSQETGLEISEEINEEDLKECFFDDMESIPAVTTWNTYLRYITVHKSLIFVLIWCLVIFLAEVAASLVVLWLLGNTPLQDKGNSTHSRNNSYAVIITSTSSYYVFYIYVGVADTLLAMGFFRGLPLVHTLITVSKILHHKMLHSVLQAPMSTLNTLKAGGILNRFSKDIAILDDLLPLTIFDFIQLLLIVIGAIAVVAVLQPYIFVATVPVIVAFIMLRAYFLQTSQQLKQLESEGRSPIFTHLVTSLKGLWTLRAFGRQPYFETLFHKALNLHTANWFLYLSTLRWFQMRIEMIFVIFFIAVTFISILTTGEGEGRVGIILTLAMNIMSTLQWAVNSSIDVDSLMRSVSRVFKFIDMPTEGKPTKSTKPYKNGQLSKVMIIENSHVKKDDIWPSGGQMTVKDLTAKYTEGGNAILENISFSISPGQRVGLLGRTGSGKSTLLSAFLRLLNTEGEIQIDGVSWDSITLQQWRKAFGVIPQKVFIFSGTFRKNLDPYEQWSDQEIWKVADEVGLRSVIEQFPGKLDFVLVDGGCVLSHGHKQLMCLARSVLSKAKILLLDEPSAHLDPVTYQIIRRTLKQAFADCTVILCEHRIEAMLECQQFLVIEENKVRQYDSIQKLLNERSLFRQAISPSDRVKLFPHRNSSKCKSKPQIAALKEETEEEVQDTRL

SMILES: CC(C)(C)n1nc(Oc2ncccn2)c2c(N)ncnc21 [compound 326]
- EC50 [1]: > 15 µM
- EC50 [2]: > 15 µM

SMILES: CCn1nc(Sc2cccc(C(F)(F)F)c2)c2c(N)ncnc21 [compound 323]
- EC50 [1]: > 15 µM
- EC50 [2]: < 2 µM

SMILES: CC(=O)N(C(C)=O)c1ncnc2c1c(-c1ccc(Cl)cc1)nn2C(C)(C)C [Compound No. 97]
- EC50 [1]: 2 to 5 µM
- EC50 [2]: 2 to 5 µM

SMILES: Cc1cccc(Oc2nn(C(C)(C)C)c3ncnc(N)c23)c1C [compound 167]
- EC50 [1]: > 15 µM
- EC50 [2]: < 2 µM

SMILES: CC(C)(C)Cn1cc(-c2ccc(Cl)cc2)c2c(N)ncnc21 [compound 316]
- EC50 [1]: 5 to 10 µM
- EC50 [2]: 2 to 5 µM

SMILES: CC(C)C(=O)Nc1ncnc2c1c(-c1ccc(Cl)cc1)nn2C(C)(C)C [compound 265]
- EC50 [1]: 5 to 10 µM
- EC50 [2]: < 2 µM

SMILES: Cn1cc(-c2ccc(Cl)cc2)c2c(N)ncnc21 [compound 310]
- EC50 [1]: < 2 µM
- EC50 [2]: > 15 µM

SMILES: CCn1cc(-c2ccc(Cl)cc2)c2c(NC(=O)c3ccccc3)ncnc21 [compound 272]
- EC50 [1]: < 2 µM
- EC50 [2]: > 15 µM

SMILES: CC(C)(C)n1nc(Oc2cccc(-c3ccccc3)c2)c2c(N)ncnc21 [compound 190]
- EC50 [1]: 5 to 10 µM
- EC50 [2]: > 15 µM

SMILES: CC(C)(C)n1nc(S(=O)(=O)c2ccccc2)c2c(N)ncnc21 [compound 191, 3-Benzenesulfonyl-1-tert-butyl-1H-pyrazolo[3,4-d]pyrimidin-4-ylamine]
- EC50 [1]: > 15 µM
- EC50 [2]: 5 to 10 µM

SMILES: Nc1ncnc2c1c(-c1ccc(Cl)cc1)nn2C1CCNCC1 [compound 412]
- EC50 [1]: > 15 µM
- EC50 [2]: > 15 µM

SMILES: CC(C)(C1CC1)n1cc(-c2ccc(Cl)cc2)c2c(N)ncnc21 [compound 351]
- EC50 [1]: 2 to 5 µM
- EC50 [2]: < 2 µM

SMILES: CC(C)(C)n1nc(-c2ccc(Cl)cc2)c2c(NC(=O)O[C@H]3CCOC3)ncnc21 [Compound No. 301, [1-tert-Butyl-3-(4-chloro-phenyl)-1H-pyrazolo[3,4-d]pyrimidin-4-yl]-carbamic acid tetrahydro-furan-3-yl ester]
- EC50 [1]: 5 to 10 µM
- EC50 [2]: < 2 µM

SMILES: CC(C)(C)n1nc(-c2ccc(Cl)cc2)c2c(NS(C)(=O)=O)ncnc21 [Compound No. 274, N-[1-tert-Butyl-3-(4-chloro-phenyl)-1H-pyrazolo[3,4-d]pyrimidin-4-yl]-methanesulfonamide]
- EC50 [1]: 2 to 5 µM
- EC50 [2]: > 15 µM

SMILES: CCn1cc(-c2ccc(Cl)cc2)c2c(NC(=O)c3ccc(F)cc3)ncnc21 [compound 299]
- EC50 [1]: < 2 µM
- EC50 [2]: > 15 µM

SMILES: CCn1nc(-c2ccc(Cl)cc2)c2c(N)ncnc21 [compound 67]
- EC50 [1]: > 15 µM
- EC50 [2]: 2 to 5 µM

SMILES: CC(C)N1CCC(n2nc(-c3ccc(Cl)cc3)c3c(N)ncnc32)CC1 [compound 342]
- EC50 [1]: > 15 µM
- EC50 [2]: > 15 µM

SMILES: Nc1ncnc2c1c(-c1ccc(Cl)cc1)nn2CC(F)F [compound 202]
- EC50 [1]: 5 to 10 µM
- EC50 [2]: > 15 µM

SMILES: CCn1nc(Sc2ccc(Cl)cc2)c2c(N)ncnc21 [compound 216]
- EC50 [1]: > 15 µM
- EC50 [2]: < 2 µM

SMILES: CC(C)(C)n1nc(Oc2ccc(C(=O)c3ccccc3)cc2)c2c(N)ncnc21 [compound 237]
- EC50 [1]: > 15 µM
- EC50 [2]: > 15 µM

SMILES: CC(C)(C)n1nc(Oc2ccc3c(c2)CCC3)c2c(N)ncnc21 [compound 210]
- EC50 [1]: 5 to 10 µM
- EC50 [2]: < 2 µM

SMILES: O=[N+]([O-])c1ccc(Nc2ncnc3[nH]nc(-c4ccc(Cl)cc4)c23)nc1 [compound 293]
- EC50 [1]: > 15 µM
- EC50 [2]: > 15 µM

SMILES: CC(C)(C)OC(=O)n1nc(Sc2cccc(Cl)c2)c2c(N)ncnc21 [compound 343]
- EC50 [1]: > 15 µM
- EC50 [2]: < 2 µM

SMILES: CC(C)(C)n1nc(Oc2cccnc2)c2c(N)ncnc21 [compound 183]
- EC50 [1]: > 15 µM
- EC50 [2]: > 15 µM

SMILES: CC(C)(C)n1nc([S+]([O-])c2ccccc2)c2c(N)ncnc21 (stereo not shown) [compound 173, 3-benzenesulfinyl-1-tert-butyl-1H-pyrazolo[3,4-d]pyrimidin-4-ylamine]
- EC50 [1]: > 15 µM
- EC50 [2]: > 15 µM

SMILES: CN1CC[C@@H](n2nc(-c3ccc(Cl)cc3)c3c(N)ncnc32)C1 [Compound No. 356, 3-(4-Chloro-phenyl)-1-(1-methyl-pyrrolidin-3-yl)-1H-pyrazolo[3,4-d]pyrimidin-4-ylamine]
- EC50 [1]: < 2 µM
- EC50 [2]: > 15 µM

SMILES: CCn1nc(Nc2cccc(Cl)c2)c2c(N)ncnc21 [compound 286]
- EC50 [1]: > 15 µM
- EC50 [2]: > 15 µM

SMILES: Nc1ncnc2c1c(Oc1cccc(Cl)c1)nn2CC1CC1 [compound 278]
- EC50 [1]: > 15 µM
- EC50 [2]: < 2 µM

SMILES: CCNC(=O)N1CC(n2nc(Sc3cccc(Cl)c3)c3c(N)ncnc32)C1 [Compound No. 346, 3-[4-Amino-3-(3-chloro-phenylsulfanyl)-pyrazolo[3,4-d]pyrimidin-1-yl]-azetidine-1-carboxylic acid ethylamide]
- EC50 [1]: > 15 µM
- EC50 [2]: > 15 µM

SMILES: CC(C)(C)OC(=O)N1CC(n2nc(Sc3ccccc3)c3c(N)ncnc32)C1 [Compound No. 320, 3-(4-Amino-3-phenylsulfanyl-pyrazolo[3,4-d]pyrimidin-1-yl)-azetidine-1-carboxylic acid tert-butyl ester]
- EC50 [1]: > 15 µM
- EC50 [2]: 2 to 5 µM

SMILES: CC(C)(C)n1nc(Oc2cccc(Oc3ccccc3)c2)c2c(N)ncnc21 [compound 189]
- EC50 [1]: > 15 µM
- EC50 [2]: < 2 µM

SMILES: COC(=O)Nc1ncnc2c1c(-c1ccc(Cl)cc1)nn2C(C)(C)C [Compound No. 294, [1-tert-Butyl-3-(4-chloro-phenyl)-1H-pyrazolo[3,4-d]pyrimidin-4-yl]-carbamic acid methyl ester]
- EC50 [1]: > 15 µM
- EC50 [2]: > 15 µM

SMILES: CC(C)(C)n1nc(-c2ccc(Cl)cc2)c2c(NC(=O)N3CCOCC3)ncnc21 [compound 268]
- EC50 [1]: > 15 µM
- EC50 [2]: > 15 µM

SMILES: CC(C)(C)n1nc(O)c2c(N)ncnc21 [compound 325, 4-amino-1-tert-butyl-1H-pyrazolo[3,4-d]pyrimidin-3-ol]
- EC50 [1]: > 15 µM
- EC50 [2]: > 15 µM

SMILES: CC(C)(C)n1nc(Oc2ccc(F)c(Cl)c2)c2c(N)ncnc21 [compound 176]
- EC50 [1]: > 15 µM
- EC50 [2]: < 2 µM

SMILES: CCC(=O)Nc1ncnc2c1c(-c1ccc(Cl)cc1)cn2CC [compound 271]
- EC50 [1]: < 2 µM
- EC50 [2]: 5 to 10 µM

SMILES: CC(C)(C)n1nc(-c2cccc(Oc3ccccc3)c2)c2c(N)ncnc21 [compound 132]
- EC50 [1]: > 15 µM
- EC50 [2]: > 15 µM

SMILES: Nc1ncnc2c1c(-c1ccc(Cl)cc1)nn2[C@@H]1CCOC1 [compound 307]
- EC50 [1]: > 15 µM
- EC50 [2]: > 15 µM

SMILES: CC(C)(C)n1nc(Oc2ccccn2)c2c(N)ncnc21 [compound 330]
- EC50 [1]: > 15 µM
- EC50 [2]: > 15 µM

SMILES: Nc1ncnc2c1c(-c1ccc(Cl)cc1)cn2Cc1ccccc1 [compound 327]
- EC50 [1]: > 15 µM
- EC50 [2]: < 2 µM

SMILES: CCn1nc(-c2ccc(N=[N+]=[N-])cc2)c2c(N)ncnc21 [compound 170]
- EC50 [1]: 5 to 10 µM
- EC50 [2]: > 15 µM

SMILES: CCn1cc(-c2ccc(Cl)cc2)c2c(NC(=O)NC(C)C)ncnc21 [compound 328]
- EC50 [1]: > 15 µM
- EC50 [2]: > 15 µM

SMILES: CC(=O)C1CC(n2nc(Sc3ccccc3)c3c(N)ncnc32)C1 (stereo not shown) [compound 334]
- EC50 [1]: > 15 µM
- EC50 [2]: > 15 µM

SMILES: CC(C)n1cc(-c2ccc(Cl)cc2)c2c(N)ncnc21 [compound 315]
- EC50 [1]: < 2 µM
- EC50 [2]: 2 to 5 µM

SMILES: CCn1cc(-c2ccc(Cl)cc2)c2c(NC(=O)C(C)(C)C)ncnc21 [compound 322]
- EC50 [1]: 2 to 5 µM
- EC50 [2]: 2 to 5 µM

SMILES: CCn1nc([S+]([O-])c2cc(F)cc(F)c2)c2c(N)ncnc21 (stereo not shown) [compound 283]
- EC50 [1]: > 15 µM
- EC50 [2]: > 15 µM

SMILES: Nc1ncnc2c1c(-c1ccc(Cl)cc1)cn2CC(O)CF (stereo not shown) [compound 309]
- EC50 [1]: 2 to 5 µM
- EC50 [2]: > 15 µM

SMILES: CC(C)(C)n1nc(-c2ccc(Cl)cc2)c2c(NC(=O)O[C@@H]3CCOC3)ncnc21 [compound 335]
- EC50 [1]: 5 to 10 µM
- EC50 [2]: > 15 µM

SMILES: Cc1ccc(-c2nn(C(C)(C)C)c3ncnc(NC(=O)c4ccccc4Cl)c23)cc1 [compound 99]
- EC50 [1]: > 15 µM
- EC50 [2]: 2 to 5 µM

SMILES: Nc1ncnc2c1c(-c1ccc(Cl)cc1)cn2CC1CC1 [Compound No. 242, 5-(4-Chloro-phenyl)-7-cyclopropylmethyl-7H-pyrrolo[2,3-d]pyrimidin-4-ylamine]
- EC50 [1]: < 2 µM
- EC50 [2]: 2 to 5 µM
